Results from PMC6154694, “Absorption, Metabolic Stability, and Pharmacokinetics of Ginger Phytochemicals” (Molecules : A Journal of Synthetic Chemistry and Natural …, 2017).

How the values were obtained:
[1] = Liver microsomal stability, dog; format: in vitro ADME, Beagle dog; details: protein 0.5 mg/mL
Description: Pooled liver microsomes from CD1 mouse, IGS Sprague-Dawley rat, Beagle dog, and mixed gender human were used for assays. Incubations (1 mL) consisted of liver microsomes (0.5 mg/mL), NADPH (1 mM) and 100 mM sodium phosphate buffer (pH 7.4). Following pre-incubation (10 min, 37 °C), reactions were initiated by spiking ACN/DMSO (80:20) stock solutions of GE phenolics (5 μL, 10 μM). Samples (100 μL) were withdrawn at 0, 5, 10, 15, 20 and 30 min and quenched with 200 μL acetonitrile containing internal standard. Concomitant NADPH-free control incubations were prepared similarly.

[2] = Mouse pharmacokinetic study of oral GE with and without ketoconazole, plasma with and without β-glucuronidase treatment; format: in vivo, male mice (C57BL6J); details: for Concentration Ratio (Total/Free) of GE Phenolics: GE administered group; for Concentration Ratio (Total/Free) of GE Phenolics / concentration at 0 h / concentration at 0.087 h / concentration at 0.167 h / concentration at 0.25 h / concentration at 0.5 h / concentration at 1 h / concentration at 2 h / concentration at 3 h / concentration at 4 h / concentration at 6 h / concentration at 8 h / concentration at 12 h: mouse plasma; for AUC(0-t) / Cmax / Tmax / concentration at 0 h / concentration at 0.087 h / concentration at 0.167 h / concentration at 0.25 h / concentration at 0.5 h / concentration at 1 h / concentration at 2 h / concentration at 3 h / concentration at 4 h / concentration at 6 h / concentration at 8 h / concentration at 12 h: male, C57BL6J; for AUC(0-t) / Cmax / Tmax: mouse, plasma, po, 250 mg/kg
Description: A solution formulation of GE was prepared by using 5% ethanol, 5% Tween 80, 40% polyethylene glycol, and 50% corn oil. The dose volume was 10 mL/kg and the dose administered was 250 mg/kg GE.
Pharmacokinetic study in male mice (C57BL6J, Harlan Laboratories, Indianapolis, IN, USA) was run with 36 animals in each group at a GE dose of 250 mg/kg with a dose volume of 10 mL/kg. One group was given GE alone and in the second group GE was co-administered with KTZ (50 mg/kg). A terminal sampling design was used to collect blood samples at 0 (pre-dose), 0.08, 0.16, 0.25, 0.5, 1, 2, 3, 4, 6, 8, and 12 h. At each time, 1 mL of blood was collected in ethylenediaminetetraacetic acid di-potassium salt (K2EDTA) tubes (BD Biosciences, Franklin Lakes, NJ, USA). Plasma was separated by centrifugation of samples at 4000 rpm for 10 min and stored below −60 °C till bioanalysis. All experiments were performed with approval from the Institutional Animal Care and Use Committee (IACUC, approval code: A14031). All animals were acclimatized for five days before dosing in the experimental area. Food and water was provided ad libitum throughout the study period. Animals were marked and housed (three per cage, n = 36 per group) in polypropylene cages and maintained in controlled environmental conditions with 12 h light and dark cycles. The temperature and humidity of the room was maintained between 22 ± 3 °C and 30% to 50%, respectively, and approximately 10–12 fresh air change cycles per hour.
To confirm the presence of GE glucuronide conjugates, plasma (100 μL) was treated with βgd (20 μL, 500 units) and incubated at 37 °C for 1 h. Each sample was analyzed twice with and without β-gd treatment. Samples without gde treatment were diluted with 20 μL of buffer. Total (conjugated + free) and free ginger phenolics data were reported following bioanalysis.
All in vitro and in vivo samples were processed by protein precipitation method. An aliquot (100 μL) of the sample was spiked with 200 μL of acetonitrile containing dihydrocapsaicin as internal standard (IS) and vortex mixed for 3 min. The tubes were centrifuged at 12,000 rpm for 10 min and an aliquot of supernatant was transferred into autosampler vials for analysis. The stock solutions of 6G, 8G, 10G, and 6S were prepared in ACN/water (70:30) at 1 mg/mL. A calibration curve (CC) range of 2–2000 ng/mL was employed for the quantification of analytes and IS concentration was 150 ng/mL for each analysis. The CC consisted of blank, blank with IS and seven non-zero calibration standards. The calibration standards were within ±15% of the nominal concentration and lower limit of quantification was within ±20% of nominal. All samples were analyzed using liquid chromatography tandem mass spectrometry (LC-MS/MS) method (Agilent 6410 series, Santa Clara, CA, USA). A positive ionization mode with multiple reaction monitoring (MRM, m/z Q1/Q3) of 6G (m/z 277.1/177.1, retention time (RT) 2.0 min), 8G (m/z 305.1/177.1, RT 4.0 min), 10G (m/z 333.1/177.1, RT 7.7 min), 6S (m/z 277.1/137.1, RT 5.1 min), and IS (m/z 308.2/137.1, RT 3.4 min) was employed. The ion spray voltage was set at 3500 V, ionization temperature was set to 300 °C and drying gas flow rate was 10 L/min. Data acquisition and quantitation were performed using Mass Hunter software (Agilent Technologies, Wilmington, DE, USA). Separation was achieved using HP1100 series LC (Agilent Technologies) with an Agilent Zorbax reversed-phase (SB-C18, 2.1 × 50 mm, 5.0 μm) column. A gradient method was employed to separate the individual GE phenolics using mobile phase A (0.1% formic acid in water) and mobile phase B (Acetonitrile). The gradient elution method with 50% B at 0 min, 90% B at 5 min, held for 2.1 min, back to 50% B at 7.1 min with a flow rate of 0.2 mL/min. An injection volume of 2 μL was used for analysis. […]

[3] = 250 mg/kg GE + 50 mg/kg KTZ oral, +KTZ −βgd

CCCCC[C@H](O)CC(=O)CCc1ccc(O)c(OC)c1 [6G, 6-gingerol]
remaining at 0.5 h, 10 µM ([1]; Beagle, pooled liver microsomes, pH 7.4, substrate 10 µM, n = 2, read-out: % Remaining at 30 min): 67%
Intrinsic Clearance ([1]; dog liver microsomes, substrate 10 µM, 45 mg protein/g liver): 14.1 mL/min/g Liver
AUClast Ratio ([2]; +KTZ +βgd, reference GE group co-administered with KTZ untreated with βgd): 63
AUClast Ratio ([2]; +KTZ +βgd, reference GE group untreated with βgd): 498
AUClast Ratio ([2]; +KTZ −βgd, reference GE group untreated with βgd): 8
Concentration Ratio (Total/Free) of GE Phenolics ([2]; 0 h): 0
Concentration Ratio (Total/Free) of GE Phenolics ([2]; 0.087 h): 0
Concentration Ratio (Total/Free) of GE Phenolics ([2]; 0.167 h): 0
Concentration Ratio (Total/Free) of GE Phenolics ([2]; 0.25 h): 3659
Concentration Ratio (Total/Free) of GE Phenolics ([2]; 0.5 h): 8723
Concentration Ratio (Total/Free) of GE Phenolics ([2]; 1 h): 0
Concentration Ratio (Total/Free) of GE Phenolics ([2]; 2 h): 53
Concentration Ratio (Total/Free) of GE Phenolics ([2]; 3 h): 290
Concentration Ratio (Total/Free) of GE Phenolics ([2]; 4 h): 491
Concentration Ratio (Total/Free) of GE Phenolics ([2]; 6 h): 391
Concentration Ratio (Total/Free) of GE Phenolics ([2]; 8 h): 0
Concentration Ratio (Total/Free) of GE Phenolics ([2]; 12 h): 0
AUC(0-t) ([2]; 250 mg/kg GE oral, −βgd): 37.7 ng·h/mL
Cmax ([2]; 250 mg/kg GE oral, −βgd): 27.2 ng/mL
Tmax ([2]; 250 mg/kg GE oral, −βgd): 2 h
AUC(0-t) [2, 3]: 300 ng·h/mL
Cmax [2, 3]: 257 ng/mL
Tmax [2, 3]: 0.5 h
concentration at 0 h ([2]; 250 mg/kg GE oral, 0 h, −βgd): 0 ng/mL
concentration at 0.087 h ([2]; 250 mg/kg GE oral, 0.087 h, −βgd): 0 ng/mL
concentration at 0.167 h ([2]; 250 mg/kg GE oral, 0.167 h, −βgd): 0.11 ± 0.08 ng/mL
concentration at 0.25 h ([2]; 250 mg/kg GE oral, 0.25 h, −βgd): 2.25 ± 1.73 ng/mL
concentration at 0.5 h ([2]; 250 mg/kg GE oral, 0.5 h, −βgd): 1.79 ± 1.82 ng/mL
concentration at 1 h ([2]; 250 mg/kg GE oral, 1 h, −βgd): 1.04 ± 0.79 ng/mL
concentration at 2 h ([2]; 250 mg/kg GE oral, 2 h, −βgd): 27.2 ± 38.4 ng/mL
concentration at 3 h ([2]; 250 mg/kg GE oral, 3 h, −βgd): 2.45 ± 1.73 ng/mL
concentration at 4 h ([2]; 250 mg/kg GE oral, 4 h, −βgd): 0.82 ± 1.16 ng/mL
concentration at 6 h ([2]; 250 mg/kg GE oral, 6 h, −βgd): 3.22 ± 4.03 ng/mL
concentration at 8 h ([2]; 250 mg/kg GE oral, 8 h, −βgd): 0.77 ± 0.57 ng/mL
concentration at 12 h ([2]; 250 mg/kg GE oral, 12 h, −βgd): 0.33 ± 0.44 ng/mL
concentration at 0 h ([2]; 250 mg/kg GE with 50 mg/kg ketoconazole oral, 0 h, −βgd): 0 ng/mL
concentration at 0.087 h ([2]; 250 mg/kg GE with 50 mg/kg ketoconazole oral, 0.087 h, −βgd): 0.31 ± 0.44 ng/mL
concentration at 0.167 h ([2]; 250 mg/kg GE with 50 mg/kg ketoconazole oral, 0.167 h, −βgd): 5.71 ± 4.25 ng/mL
concentration at 0.25 h ([2]; 250 mg/kg GE with 50 mg/kg ketoconazole oral, 0.25 h, −βgd): 35.9 ± 44.5 ng/mL
concentration at 0.5 h ([2]; 250 mg/kg GE with 50 mg/kg ketoconazole oral, 0.5 h, −βgd): 37900 ng/mL
concentration at 1 h ([2]; 250 mg/kg GE with 50 mg/kg ketoconazole oral, 1 h, −βgd): 104 ± 110 ng/mL
concentration at 2 h ([2]; 250 mg/kg GE with 50 mg/kg ketoconazole oral, 2 h, −βgd): 70900 ng/mL
concentration at 3 h ([2]; 250 mg/kg GE with 50 mg/kg ketoconazole oral, 3 h, −βgd): 65.2 ± 54.3 ng/mL
concentration at 4 h ([2]; 250 mg/kg GE with 50 mg/kg ketoconazole oral, 4 h, −βgd): 5.87 ± 1.18 ng/mL
concentration at 6 h ([2]; 250 mg/kg GE with 50 mg/kg ketoconazole oral, 6 h, −βgd): 1.09 ± 0.93 ng/mL
concentration at 8 h ([2]; 250 mg/kg GE with 50 mg/kg ketoconazole oral, 8 h, −βgd): 10.4 ± 11.1 ng/mL
concentration at 12 h ([2]; 250 mg/kg GE with 50 mg/kg ketoconazole oral, 12 h, −βgd): 0.74 ± 1.05 ng/mL
